Columns and labels:
COR-L279 = assay: SANGER: Inhibition of human COR-L279 cell growth in a cell viability assay.; type: functional, cell-based
Daudi = assay: cells; type: functional, cell-based; conditions: Homo sapiens;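 further: growth inhibition of Daudi cells, read out by a viability assay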
Description: SANGER: Inhibition of human Daudi cell growth in a cell viability assay.

EB2 = assay: cells; type: functional, cell-based; conditions: Homo sapiens;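 further: growth inhibition of EB2 cells, read out with a cell viability assay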
Description: SANGER: Inhibition of human EB2 cell growth in a cell viability assay.

ECC4 = assay: cells; type: functional, cell-based; conditions: Homo sapiens;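 further: growth inhibition of ECC4 cells, read out with a cell viability assay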
Description: SANGER: Inhibition of human ECC4 cell growth in a cell viability assay.

EVSA-T = assay: cells; type: functional, cell-based; conditions: Homo sapiens;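 further: growth inhibition of EVSA-T cells, read out with a cell viability assay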
Description: SANGER: Inhibition of human EVSA-T cell growth in a cell viability assay.

IST-SL2 = assay: cells; type: functional, cell-based; conditions: Homo sapiens;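 further: growth inhibition of human IST-SL2 cells, read out by a cell viability assay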
Description: SANGER: Inhibition of human IST-SL2 cell growth in a cell viability assay.

KMS-12-PE = assay: cells; type: functional, cell-based; conditions: Homo sapiens;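 further: growth inhibition of human KMS-12-PE cells, measured with a cell viability assay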
Description: SANGER: Inhibition of human KMS-12-PE cell growth in a cell viability assay.

LB996-RCC = assay: cells; type: functional, cell-based; conditions: Homo sapiens
Description: SANGER: Inhibition of human LB996-RCC cell growth in a cell viability assay.

MONO-MAC-6 = assay: cells; type: functional, cell-based; conditions: Homo sapiens;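 further: cell viability assay measuring growth inhibition of human MONO-MAC-6 cells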
Description: SANGER: Inhibition of human MONO-MAC-6 cell growth in a cell viability assay.

NB1 = assay: cells; type: functional, cell-based; conditions: Homo sapiens
Description: SANGER: Inhibition of human NB1 cell growth in a cell viability assay.

NB14 = assay: cells; type: functional, cell-based; conditions: Homo sapiens;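 further: growth inhibition of NB14 cells measured with a cell viability assay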
Description: SANGER: Inhibition of human NB14 cell growth in a cell viability assay.

NCI-H2081 = assay: cells; type: functional, cell-based; conditions: Homo sapiens;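 further: growth inhibition of human NCI-H2081 cells, read out with a cell viability assay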
Description: SANGER: Inhibition of human NCI-H2081 cell growth in a cell viability assay.

NCI-H322M = assay: cells; type: functional, cell-based; conditions: Homo sapiens;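 further: cell viability assay measuring inhibition of growth of human NCI-H322M cells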
Description: SANGER: Inhibition of human NCI-H322M cell growth in a cell viability assay.

NCI-H748 = assay: cells; type: functional, cell-based; conditions: Homo sapiens;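 further: growth inhibition of NCI-H748 cells, measured by a cell viability assay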
Description: SANGER: Inhibition of human NCI-H748 cell growth in a cell viability assay.

NCI-H889 = assay: cells; type: functional, cell-based; conditions: Homo sapiens;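 further: cell growth inhibition of the cell line, read out with a viability assay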
Description: SANGER: Inhibition of human NCI-H889 cell growth in a cell viability assay.

SNU-16 = assay: cells; type: functional, cell-based; conditions: Homo sapiens;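 further: growth inhibition of human SNU-16 cells, determined with a cell viability readout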
Description: SANGER: Inhibition of human NCI-SNU-16 cell growth in a cell viability assay.

RPMI 8402 = assay: SANGER: Inhibition of human RPMI-8402 cell growth in a cell viability assay.; type: functional, cell-based
A253 cell line = assay: cells; type: functional, cell-based; conditions: Homo sapiens;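 further: growth inhibition of A253 cells, read out with a cell viability assay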
Description: SANGER: Inhibition of human A253 cell growth in a cell viability assay.

TE-441-T = assay: cells; type: functional, cell-based; conditions: Homo sapiens
Description: SANGER: Inhibition of human TE-441-T cell growth in a cell viability assay.

COR-L23 = assay: cells; type: functional, cell-based; conditions: Homo sapiens;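 further: cell viability assay measuring how strongly compounds suppress growth of COR-L23 cells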
Description: SANGER: Inhibition of human COR-L23 cell growth in a cell viability assay.

ChaGo-K-1 = assay: cells; type: functional, cell-based; conditions: Homo sapiens;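 further: growth inhibition of ChaGo-K-1 cells, read out with a cell viability assay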
Description: SANGER: Inhibition of human ChaGo-K-1 cell growth in a cell viability assay.

D-542MG = assay: cells; type: functional, cell-based; conditions: Homo sapiens
Description: SANGER: Inhibition of human D-542MG cell growth in a cell viability assay.

EGI-1 = assay: cells; type: functional, cell-based; conditions: Homo sapiens;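 further: cell viability readout used to gauge growth inhibition of EGI-1 cells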
Description: SANGER: Inhibition of human EGI-1 cell growth in a cell viability assay.

EW-22 = assay: cells; type: functional, cell-based; conditions: Homo sapiens;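 further: growth inhibition of the EW-22 cell line, measured with a cell viability readout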
Description: SANGER: Inhibition of human EW-22 cell growth in a cell viability assay.

HCT-116 = assay: cells; type: functional, cell-based; conditions: Homo sapiens
Description: SANGER: Inhibition of human HCT-116 cell growth in a cell viability assay.

HLE = assay: cells; type: functional, cell-based; conditions: Homo sapiens;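 further: growth inhibition of human HLE cells, read out by a cell viability assay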
Description: SANGER: Inhibition of human HLE cell growth in a cell viability assay.

HPAF-II = assay: cells; type: functional, cell-based; conditions: Homo sapiens;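 further: growth inhibition of HPAF-II cells, read out with a cell viability assay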
Description: SANGER: Inhibition of human HPAF-II cell growth in a cell viability assay.

HT1197 = assay: cells; type: functional, cell-based, HT-1197; conditions: Homo sapiens
Description: SANGER: Inhibition of human HT-1197 cell growth in a cell viability assay.

HuP-T4 = assay: cells; type: functional, cell-based; conditions: Homo sapiens;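 further: cell viability assay measuring how much HuP-T4 cell growth is inhibited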
Description: SANGER: Inhibition of human HuP-T4 cell growth in a cell viability assay.

KU-19-19 = assay: cells; type: functional, cell-based; conditions: Homo sapiens
Description: SANGER: Inhibition of human KU-19-19 cell growth in a cell viability assay.

KYSE-150 cell line = assay: cells; type: functional, cell-based; conditions: Homo sapiens;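 further: growth inhibition of human KYSE-150 cells, read out with a cell viability assay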
Description: SANGER: Inhibition of human KYSE-150 cell growth in a cell viability assay.

KYSE-180 = assay: cells; type: functional, cell-based; conditions: Homo sapiens;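 further: growth inhibition of KYSE-180 cells, read out with a cell viability assay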
Description: SANGER: Inhibition of human KYSE-180 cell growth in a cell viability assay.

KYSE-270 = assay: cells; type: functional, cell-based; conditions: Homo sapiens;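 further: cell growth inhibition measured with a viability assay in the human KYSE-270 line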
Description: SANGER: Inhibition of human KYSE-270 cell growth in a cell viability assay.

ME-180 = assay: cells; type: functional, cell-based; conditions: Homo sapiens;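 further: cell viability assay measuring growth inhibition of ME-180 cells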
Description: SANGER: Inhibition of human ME-180 cell growth in a cell viability assay.

MEL-HO = assay: cells; type: functional, cell-based; conditions: Homo sapiens
Description: SANGER: Inhibition of human MEL-HO cell growth in a cell viability assay.

MEL-JUSO = assay: cells; type: functional, cell-based; conditions: Homo sapiens;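 further: growth inhibition of human MEL-JUSO cells, read out with a cell viability assay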
Description: SANGER: Inhibition of human MEL-JUSO cell growth in a cell viability assay.

NCI-H1048 = assay: cells; type: functional, cell-based; conditions: Homo sapiens;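 further: growth inhibition of human NCI-H1048 cells, read out with a cell viability assay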
Description: SANGER: Inhibition of human NCI-H1048 cell growth in a cell viability assay.

NCI-H1703 = assay: cells; type: functional, cell-based; conditions: Homo sapiens;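 further: growth inhibition of NCI-H1703 cells, read out via a cell viability assay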
Description: SANGER: Inhibition of human NCI-H1703 cell growth in a cell viability assay.

NCI-H2228 = assay: cells; type: functional, cell-based; conditions: Homo sapiens;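 further: growth inhibition of human NCI-H2228 cells, read out by a cell viability assay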
Description: SANGER: Inhibition of human NCI-H2228 cell growth in a cell viability assay.

NCI-H2347 = assay: cells; type: functional, cell-based; conditions: Homo sapiens;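 further: growth inhibition of the cell line, read out with a cell viability assay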
Description: SANGER: Inhibition of human NCI-H2347 cell growth in a cell viability assay.

PANC-03-27 = assay: cells; type: functional, cell-based; conditions: Homo sapiens
Description: SANGER: Inhibition of human PANC-03-27 cell growth in a cell viability assay.

PANC-08-13 = assay: cells; type: functional, cell-based; conditions: Homo sapiens
Description: SANGER: Inhibition of human PANC-08-13 cell growth in a cell viability assay.

PC-14 = assay: cells; type: functional, cell-based; conditions: Homo sapiens;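 further: cell viability assay measuring inhibition of PC-14 cell growth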
Description: SANGER: Inhibition of human PC-14 cell growth in a cell viability assay.

RERF-LC-MS = assay: cells; type: functional, cell-based; conditions: Homo sapiens;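 further: growth inhibition of human RERF-LC-MS cells, read out by a cell viability assay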
Description: SANGER: Inhibition of human RERF-LC-MS cell growth in a cell viability assay.

RMG-I = assay: cells; type: functional, cell-based; conditions: Homo sapiens;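 further: growth inhibition of human RMG-I cells, read out with a cell viability assay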
Description: SANGER: Inhibition of human RMG-I cell growth in a cell viability assay.

SNU-387 = assay: cells; type: functional, cell-based; conditions: Homo sapiens
Description: SANGER: Inhibition of human SNU-387 cell growth in a cell viability assay.

SNU-423 = assay: cells; type: functional, cell-based; conditions: Homo sapiens
Description: SANGER: Inhibition of human SNU-423 cell growth in a cell viability assay.

SW1463 = assay: cells; type: functional, cell-based; conditions: Homo sapiens;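 further: growth inhibition of SW1463 cells, determined with a cell viability assay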
Description: SANGER: Inhibition of human SW1463 cell growth in a cell viability assay.

SW48 = assay: cells; type: functional, cell-based; conditions: Homo sapiens;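 further: growth inhibition of SW48 cells, read out with a cell viability assay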
Description: SANGER: Inhibition of human SW48 cell growth in a cell viability assay.

SW780 = assay: cells; type: functional, cell-based; conditions: Homo sapiens;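 further: growth inhibition of the cells, read out with a cell viability assay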
Description: SANGER: Inhibition of human SW780 cell growth in a cell viability assay.

T47D = assay: cells; type: functional, cell-based; conditions: Homo sapiens;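 further: growth inhibition of human T47D cells, measured with a cell viability assay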
Description: SANGER: Inhibition of human T47D cell growth in a cell viability assay.

647-V = assay: cells; type: functional, cell-based; conditions: Homo sapiens;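 further: growth inhibition of 647-V cells, read out with a cell viability assay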
Description: SANGER: Inhibition of human 647-V cell growth in a cell viability assay.

A 172 = assay: cells; type: functional, cell-based; conditions: Homo sapiens;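 further: growth inhibition of A172 cells, measured with a cell viability readout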
Description: SANGER: Inhibition of human A172 cell growth in a cell viability assay.

AGS = assay: cells; type: functional, cell-based; conditions: Homo sapiens;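 further: growth inhibition of AGS cells, determined with a cell viability assay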
Description: SANGER: Inhibition of human AGS cell growth in a cell viability assay.

BFTC-909 = assay: cells; type: functional, cell-based; conditions: Homo sapiens
Description: SANGER: Inhibition of human BFTC-909 cell growth in a cell viability assay.

C3A = assay: cells; type: functional, cell-based; conditions: Homo sapiens;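 further: growth inhibition of C3A human cells, quantified with a cell viability readout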
Description: SANGER: Inhibition of human C3A cell growth in a cell viability assay.

CAL-51 = assay: cells; type: functional, cell-based; conditions: Homo sapiens;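 further: human CAL-51 cell line, growth inhibition read out via a cell viability assay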
Description: SANGER: Inhibition of human CAL-51 cell growth in a cell viability assay.

CAL-62 = assay: cells; type: functional, cell-based; conditions: Homo sapiens;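 further: growth inhibition of CAL-62 cells, read out with a cell viability assay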
Description: SANGER: Inhibition of human CAL-62 cell growth in a cell viability assay.

TYK-nu = assay: cells; type: functional, cell-based; conditions: Homo sapiens;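 further: growth inhibition of human TYK-nu cells, read out by a cell viability assay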
Description: SANGER: Inhibition of human TYK-nu cell growth in a cell viability assay.

YH-13 = assay: cells; type: functional, cell-based; conditions: Homo sapiens;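 further: cell viability readout of growth suppression in the human YH-13 cell line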
Description: SANGER: Inhibition of human YH-13 cell growth in a cell viability assay.

MOLT-13 = assay: cells; type: functional, cell-based; conditions: Homo sapiens;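 further: IC50 for suppression of MOLT-13 cell growth, read out with a cell viability assay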
Description: SANGER: Inhibition of human MOLT-13 cell growth in a cell viability assay.

CCNc1cc(N[C@H]2CC[C@@H](O)CC2)nc(Nc2ccc3c(ccn3Cc3ccccc3)c2)n1
IC50 (COR-L279): > 5.12 µM
IC50 (Daudi): > 5.12 µM
IC50 (EB2): > 5.12 µM
IC50 (ECC4): > 5.12 µM
IC50 (EVSA-T): > 5.12 µM
IC50 (IST-SL2): 4.56 µM
IC50 (KMS-12-PE): > 5.12 µM
IC50 (LB996-RCC): > 5.12 µM
IC50 (MONO-MAC-6): > 5.12 µM
IC50 (NB1): > 5.12 µM
IC50 (NB14): > 5.12 µM
IC50 (NCI-H2081): > 5.12 µM
IC50 (NCI-H322M): > 5.12 µM
IC50 (NCI-H748): > 5.12 µM
IC50 (NCI-H889): > 5.12 µM
IC50 (SNU-16): > 5.12 µM
IC50 (RPMI 8402): 3.48 µM
IC50 (A253 cell line): > 5.12 µM
IC50 (TE-441-T): > 5.12 µM

O=c1cc(N2CCOCC2)oc2c(-c3cccc4c3sc3ccccc34)cccc12
IC50 (COR-L23): > 2 µM
IC50 (ChaGo-K-1): > 2 µM
IC50 (D-542MG): > 2 µM
IC50 (EGI-1): > 2 µM
IC50 (EW-22): > 2 µM
IC50 (HCT-116): > 2 µM
IC50 (HLE): > 2 µM
IC50 (HPAF-II): > 2 µM
IC50 (HT1197): > 2 µM
IC50 (HuP-T4): > 2 µM
IC50 (KU-19-19): > 2 µM
IC50 (KYSE-150 cell line): > 2 µM
IC50 (KYSE-180): > 2 µM
IC50 (KYSE-270): > 2 µM
IC50 (LB996-RCC): > 2 µM
IC50 (ME-180): > 2 µM
IC50 (MEL-HO): > 2 µM
IC50 (MEL-JUSO): > 2 µM
IC50 (NB14): > 2 µM
IC50 (NCI-H1048): > 2 µM
IC50 (NCI-H1703): > 2 µM
IC50 (NCI-H2228): > 2 µM
IC50 (NCI-H2347): > 2 µM
IC50 (PANC-03-27): > 2 µM
IC50 (PANC-08-13): > 2 µM
IC50 (PC-14): > 2 µM
IC50 (RERF-LC-MS): > 2 µM
IC50 (RMG-I): > 2 µM
IC50 (SNU-387): > 2 µM
IC50 (SNU-423): > 2 µM
IC50 (SW1463): > 2 µM
IC50 (SW48): > 2 µM
IC50 (SW780): > 2 µM
IC50 (T47D): > 2 µM
IC50 (647-V): > 2 µM
IC50 (A 172): 0.153 µM
IC50 (A253 cell line): > 2 µM
IC50 (AGS): > 2 µM
IC50 (BFTC-909): > 2 µM
IC50 (C3A): > 2 µM
IC50 (CAL-51): > 2 µM
IC50 (CAL-62): > 2 µM
IC50 (TYK-nu): > 2 µM
IC50 (YH-13): > 2 µM

COc1cc(C)c(Sc2cnc(NC(=O)c3ccc(CNC(C)C(C)(C)C)cc3)s2)cc1C(=O)N1CCN(C(C)=O)CC1 (stereo not given)
IC50 (COR-L279): > 10.2 µM
IC50 (Daudi): > 10.2 µM
IC50 (EB2): > 10.2 µM
IC50 (ECC4): > 10.2 µM
IC50 (EVSA-T): > 10.2 µM
IC50 (IST-SL2): > 10.2 µM
IC50 (KMS-12-PE): > 10.2 µM
IC50 (LB996-RCC): > 10.2 µM
IC50 (MOLT-13): > 10.2 µM
IC50 (MONO-MAC-6): 6.67 µM
IC50 (NB1): > 10.2 µM
IC50 (NB14): > 10.2 µM
IC50 (NCI-H2081): > 10.2 µM
IC50 (NCI-H322M): > 10.2 µM
IC50 (NCI-H748): > 10.2 µM
IC50 (NCI-H889): > 10.2 µM
IC50 (SNU-16): > 10.2 µM
IC50 (RPMI 8402): > 10.2 µM
IC50 (A253 cell line): > 10.2 µM
IC50 (TE-441-T): > 10.2 µM

Cc1ccc(NC(=O)c2cccc(C(C)(C)C#N)c2)cc1Nc1ccc2ncn(C)c(=O)c2c1
IC50 (COR-L279): > 4 µM
IC50 (D-542MG): > 4 µM
IC50 (Daudi): > 4 µM
IC50 (EB2): > 4 µM
IC50 (ECC4): > 4 µM
IC50 (EVSA-T): > 4 µM
IC50 (EW-22): > 4 µM
IC50 (IST-SL2): > 4 µM
IC50 (KMS-12-PE): > 4 µM
IC50 (LB996-RCC): > 4 µM
IC50 (MOLT-13): > 4 µM
IC50 (MONO-MAC-6): > 4 µM
IC50 (NB1): > 4 µM
IC50 (NB14): 0.493 µM
IC50 (NCI-H2081): > 4 µM
IC50 (NCI-H322M): > 4 µM
IC50 (NCI-H748): > 4 µM
IC50 (NCI-H889): > 4 µM
IC50 (SNU-16): > 4 µM
IC50 (RPMI 8402): > 4 µM
IC50 (A253 cell line): > 4 µM
IC50 (TE-441-T): 2.81 µM
